PMC10289903 (Investigational New Drugs, 2023)
Where two headings read alike, the source gives them in different places.

Tested on: patients with locally advanced or metastatic solid tumors
Text: This was a Phase Ib, multicenter, open-label, dose-finding clinical trial (NCT02610075). […] Three types of treatment schedules were investigated: cohorts bid 1, bid 2, qd 1.1, qd 2.1 and qd 3.1 received bid or qd treatment on a 5/9 schedule (5 days on treatment, followed by 9 days off) on a 14-day cycle. Cohorts qd 1.2, qd 2.2, and qd 3.2 received treatment on a 5/2 schedule (5 days on followed by 2 days off for 2 of 3 weeks) in a 21-day cycle. Cohorts qd 2.3 and qd 3.3 received treatment on a weekly 5/2 schedule in a 21-day cycle (Table 1). The highest dose level(s) at which less than one-third of evaluable patients (none of 3 patients or 1 of 6 patients) experienced a dose-limiting toxicity (DLT) was declared the MTD.
The per protocol analysis set was defined as a subset of the full analysis set, excluding subjects having an important protocol deviation, to be used for analyses of efficacy endpoints if appropriate.

With `C=CCn1c(=O)c2cnc(Nc3ccc(N4CCN(C)CC4)cc3)nc2n1-c1cccc(C(C)(C)O)n1` [adavosertib, Adavosertib] the “Treatment-related SAE: pneumonia” value (all cohorts (N=62)) was 2 [3.2%] n [%], the “Treatment-related SAE: thrombocytopenia” value (all cohorts (N=62)) was 1 [1.6%] n [%] and the “Abdominal pain (treatment-emergent AE)” value (bid 2: 150 mg bid 5/9 (n=6)) was 1 (16.7) n (%). The “Abdominal pain (treatment-related AE)” value (bid 2: 150 mg bid 5/9 (n=6)) was 0 n (%), the “Alanine aminotransferase increased (treatment-emergent AE)” value (bid 2: 150 mg bid 5/9 (n=6)) was 0 n (%) and the “Anemia (treatment-emergent AE)” value (bid 2: 150 mg bid 5/9 (n=6)) was 1 (16.7) n (%). For the same molecule, the “Anemia (treatment-related AE)” value (bid 2: 150 mg bid 5/9 (n=6)) was 1 (16.7) n (%), the “Any AE (treatment-emergent)” value (bid 2: 150 mg bid 5/9 (n=6)) was 6 (100) n (%) and the “Any grade ≥ 3 AE” value (bid 2: 150 mg bid 5/9 (n=6)) was 5 (83.3) n (%). The “Any treatment-related AE” value (bid 2: 150 mg bid 5/9 (n=6)) was 6 (100) n (%), the “Any treatment-related grade ≥ 3 AE” value (bid 2: 150 mg bid 5/9 (n=6)) was 3 (50.0) n (%) and the “Asthenia (treatment-emergent AE)” value (bid 2: 150 mg bid 5/9 (n=6)) was 1 (16.7) n (%). The “Asthenia (treatment-related AE)” value (bid 2: 150 mg bid 5/9 (n=6)) was 0 n (%), the “Back pain (treatment-emergent AE)” value (bid 2: 150 mg bid 5/9 (n=6)) was 2 (33.3) n (%) and the “Constipation (treatment-emergent AE)” value (bid 2: 150 mg bid 5/9 (n=6)) was 2 (33.3) n (%). For the same molecule, the “Constipation (treatment-related AE)” value (bid 2: 150 mg bid 5/9 (n=6)) was 1 (16.7) n (%), the “Cough (treatment-emergent AE)” value (bid 2: 150 mg bid 5/9 (n=6)) was 1 (16.7) n (%) and the “Decreased appetite (treatment-emergent AE)” value (bid 2: 150 mg bid 5/9 (n=6)) was 2 (33.3) n (%). The “Decreased appetite (treatment-related AE)” value (bid 2: 150 mg bid 5/9 (n=6)) was 2 (33.3) n (%), the “Dehydration (treatment-emergent AE)” value (bid 2: 150 mg bid 5/9 (n=6)) was 4 (66.7) n (%) and the “Dehydration (treatment-related AE)” value (bid 2: 150 mg bid 5/9 (n=6)) was 4 (66.7) n (%). The “Diarrhea (treatment-emergent AE)” value (bid 2: 150 mg bid 5/9 (n=6)) was 5 (83.3) n (%), the “Diarrhea (treatment-related AE)” value (bid 2: 150 mg bid 5/9 (n=6)) was 5 (83.3) n (%) and the “Dizziness (treatment-emergent AE)” value (bid 2: 150 mg bid 5/9 (n=6)) was 1 (16.7) n (%). The “Dyspepsia (treatment-emergent AE)” value (bid 2: 150 mg bid 5/9 (n=6)) was 1 (16.7) n (%), the “Dyspepsia (treatment-related AE)” value (bid 2: 150 mg bid 5/9 (n=6)) was 1 (16.7) n (%) and the “Dyspnea (treatment-emergent AE)” value (bid 2: 150 mg bid 5/9 (n=6)) was 2 (33.3) n (%). The “Edema peripheral (treatment-emergent AE)” value (bid 2: 150 mg bid 5/9 (n=6)) was 1 (16.7) n (%), the “Fall (treatment-emergent AE)” value (bid 2: 150 mg bid 5/9 (n=6)) was 1 (16.7) n (%) and the “Fatigue (treatment-emergent AE)” value (bid 2: 150 mg bid 5/9 (n=6)) was 5 (83.3) n (%). The “Fatigue (treatment-related AE)” value (bid 2: 150 mg bid 5/9 (n=6)) was 4 (66.7) n (%), the “Headache (treatment-emergent AE)” value (bid 2: 150 mg bid 5/9 (n=6)) was 1 (16.7) n (%) and the “Hypokalemia (treatment-emergent AE)” value (bid 2: 150 mg bid 5/9 (n=6)) was 1 (16.7) n (%). The “Insomnia (treatment-emergent AE)” value (bid 2: 150 mg bid 5/9 (n=6)) was 1 (16.7) n (%), the “Muscle spasms (treatment-emergent AE)” value (bid 2: 150 mg bid 5/9 (n=6)) was 0 n (%) and the “Myalgia (treatment-emergent AE)” value (bid 2: 150 mg bid 5/9 (n=6)) was 0 n (%). For the same molecule, the “Myalgia (treatment-related AE)” value (bid 2: 150 mg bid 5/9 (n=6)) was 0 n (%), the “Nausea (treatment-emergent AE)” value (bid 2: 150 mg bid 5/9 (n=6)) was 3 (50.0) n (%) and the “Nausea (treatment-related AE)” value (bid 2: 150 mg bid 5/9 (n=6)) was 3 (50.0) n (%). For the same molecule, the “Neutropenia (treatment-emergent AE)” value (bid 2: 150 mg bid 5/9 (n=6)) was 2 (33.3) n (%), the “Neutropenia (treatment-related AE)” value (bid 2: 150 mg bid 5/9 (n=6)) was 2 (33.3) n (%) and the “Pneumonia (treatment-emergent AE)” value (bid 2: 150 mg bid 5/9 (n=6)) was 0 n (%). For the same molecule, the “Pyrexia (treatment-emergent AE)” value (bid 2: 150 mg bid 5/9 (n=6)) was 2 (33.3) n (%), the “Rash (treatment-emergent AE)” value (bid 2: 150 mg bid 5/9 (n=6)) was 0 n (%) and the “Thrombocytopenia (treatment-emergent AE)” value (bid 2: 150 mg bid 5/9 (n=6)) was 0 n (%). For the same molecule, the “Thrombocytopenia (treatment-related AE)” value (bid 2: 150 mg bid 5/9 (n=6)) was 0 n (%), the “Urinary tract infection (treatment-emergent AE)” value (bid 2: 150 mg bid 5/9 (n=6)) was 1 (16.7) n (%) and the “Vomiting (treatment-emergent AE)” value (bid 2: 150 mg bid 5/9 (n=6)) was 2 (33.3) n (%). For the same molecule, the “Vomiting (treatment-related AE)” value (bid 2: 150 mg bid 5/9 (n=6)) was 2 (33.3) n (%), the “Deaths attributed to disease progression and an SAE of treatment-unrelated grade 5 sepsis, patients” value (cohort qd 3.3) was “one” and the “AEs leading to dose interruptions, patients” value (human, in vivo) was 25 (40.3%) n (%). The “AEs leading to dose reductions, patients” value (human, in vivo) was 17 (27.4%) n (%), the “AEs leading to treatment discontinuation, patients” value (human, in vivo) was 4 (6.5%) n (%) and the “Abdominal pain (treatment-emergent AE)” value (human, in vivo) was 15 (24.2) n (%). The “Alanine aminotransferase increased (treatment-emergent AE)” value (human, in vivo) was 8 (12.9) n (%), the “Anemia (treatment-emergent AE)” value (human, in vivo) was 16 (25.8) n (%) and the “Anemia (treatment-related AE)” value (human, in vivo) was 11 (17.7) n (%).
